Experimental data from US8686050B2, “Diglycidic ether derivative therapeutics and methods for their use” (British Columbia Cancer Agency Branch, priority 2008, dated 2014).
Several values for one entry are separate records, joined by “and”; a condition that tells them apart may be missing. Equal values may be shown once. Values belong to the molecule of their own block, whether it stands above or below them.

Legend:
[1] = molecular target: T1, Gal4 DBD-AR1-558 (AR NTD) (Homo sapiens, UniProt P10275); test: Transactivation of the AR NTD (Gal4 DBD-AR1-558 with 5xGal4UAS-luciferase) in LNCaP cells; assay type: cell-based; details: for inhibition at 20 µM: read-out: inhibition of Fsk activation of Ga14ARN
T1 construct: cloning amino acids 1-558 of the human AR NTD into the C-terminus of Gal4 DBD; expressed in transfected cells; host or cells: LNCaP
T1 sequence (P10275 1-558): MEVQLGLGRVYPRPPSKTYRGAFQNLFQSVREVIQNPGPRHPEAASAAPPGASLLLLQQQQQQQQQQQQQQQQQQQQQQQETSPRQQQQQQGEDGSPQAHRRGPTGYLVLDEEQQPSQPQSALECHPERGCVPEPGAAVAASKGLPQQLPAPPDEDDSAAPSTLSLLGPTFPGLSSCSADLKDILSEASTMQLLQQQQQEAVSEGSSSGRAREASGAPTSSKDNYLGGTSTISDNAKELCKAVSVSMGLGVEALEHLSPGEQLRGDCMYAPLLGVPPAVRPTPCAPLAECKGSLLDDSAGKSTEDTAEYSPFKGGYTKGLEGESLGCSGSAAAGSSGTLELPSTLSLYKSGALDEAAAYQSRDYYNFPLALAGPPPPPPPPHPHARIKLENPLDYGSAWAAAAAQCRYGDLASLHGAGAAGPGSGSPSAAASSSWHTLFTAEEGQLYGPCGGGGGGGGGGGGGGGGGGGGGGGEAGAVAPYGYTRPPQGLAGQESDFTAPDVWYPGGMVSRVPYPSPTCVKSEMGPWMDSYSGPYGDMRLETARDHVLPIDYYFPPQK
From the text: These fractions were next tested for their ability to inhibit the AR NTD. […] Extracts identified above were screened by such assays as well as some compounds purchased from commercial suppliers.
Expression vectors for these chimeric proteins were cotransfected into LNCaP cells with a reporter gene containing the Gal4-binding site as cis-acting elements (p5×Gal4UAS-TATA-luciferase).

AR [2] = molecular target: T2, AR (Homo sapiens, UniProt P10275, T878A); test: PSA (6.1 kb)-luciferase (p6.1luc) reporter in LNCaP cells; assay type: cell-based; set-up: LNCaP cells express endogenous AR and secrete prostate-specific antigen (PSA); endogenous in cells; host or cells: LNCaP
T2 sequence (P10275 1-920 T878A): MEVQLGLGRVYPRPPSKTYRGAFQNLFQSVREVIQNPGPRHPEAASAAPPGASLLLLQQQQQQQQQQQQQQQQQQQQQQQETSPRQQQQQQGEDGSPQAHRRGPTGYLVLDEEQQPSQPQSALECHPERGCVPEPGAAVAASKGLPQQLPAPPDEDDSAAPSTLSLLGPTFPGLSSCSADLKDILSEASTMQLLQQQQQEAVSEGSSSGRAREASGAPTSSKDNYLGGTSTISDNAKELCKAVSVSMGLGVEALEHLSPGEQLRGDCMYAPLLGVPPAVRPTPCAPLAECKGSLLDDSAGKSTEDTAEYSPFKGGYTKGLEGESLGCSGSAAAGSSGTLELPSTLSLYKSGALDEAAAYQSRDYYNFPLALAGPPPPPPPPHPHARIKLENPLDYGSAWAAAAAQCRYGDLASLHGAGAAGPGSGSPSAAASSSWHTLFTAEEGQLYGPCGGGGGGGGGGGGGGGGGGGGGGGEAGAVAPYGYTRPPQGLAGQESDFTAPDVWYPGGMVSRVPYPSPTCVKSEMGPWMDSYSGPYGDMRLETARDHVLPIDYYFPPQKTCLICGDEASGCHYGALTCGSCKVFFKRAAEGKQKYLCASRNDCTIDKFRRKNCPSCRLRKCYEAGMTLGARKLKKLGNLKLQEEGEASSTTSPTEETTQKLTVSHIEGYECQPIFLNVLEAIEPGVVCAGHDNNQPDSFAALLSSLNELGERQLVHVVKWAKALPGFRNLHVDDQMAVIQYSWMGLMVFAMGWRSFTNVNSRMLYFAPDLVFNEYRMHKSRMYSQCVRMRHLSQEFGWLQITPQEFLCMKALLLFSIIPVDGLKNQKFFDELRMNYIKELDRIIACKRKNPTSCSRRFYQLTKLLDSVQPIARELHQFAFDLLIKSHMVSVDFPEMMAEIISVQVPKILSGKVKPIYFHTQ
From the text: LNCaP cells were employed initially for all experiments because they are well-differentiated human prostate cancer cells in which ligand-independent activation of the AR by FSK has been characterized (Nazareth et al 1996 J. Biol. Chem. 271, 19900-19907; and Sadar 1999 J. Biol. Chem. 274, 7777-7783). LNCaP cells express endogenous AR and secrete prostate-specific antigen (PSA) (Horoszewicz et al 1983 Cancer Res. 43, 1809-1818). LNCaP cells can be grown either as monolayers in cell culture or as tumors in the well-characterized xenograft model that progresses to androgen independence in castrated hosts (Sato et al 1996 J. Steroid Biochem. Mol. Biol. 58, 139-146; Gleave et al 1991 Cancer Res. 51, 3753-3761; Sato et al 1997 Cancer Res. 57, 1584-1589; and Sadar et al 2002 Mol. Cancer. Ther. 1(8), 629-637). […] Small molecules that specifically target the AR-NTD should have no effect on PC3 cells. This means that they should not alter the proliferation of PC3 cells if they specifically block the AR to mediate their inhibitory effects. R1881 was employed since it is stable and avoids problems associated with the labile physiological ligand dihydrotestosterone (DHT). Reporter specificity may be determined using several alternative reporter gene constructs. Some well characterized ARE-driven reporter gene constructs that have been used extensively are the PSA (6.1 kb) enhance/promoter which contains several AREs and is highly inducible by androgens as well as by FSK (Ueda et al 2002 A J. Biol. Chem. 277, 7076-7085) and the ARR3-thymidine kinase (tk)-luciferase, which is an artificial reporter construct that contains three tandem repeats of the rat probasin ARE1 and ARE2 regions upstream of a luciferase reporter (Snoek et al 1996 J. Steroid Biochem. Mol. Biol. 59, 243-250).
To ensure that the inhibitory effects of PNG 01-185 extract on endogenous PSA protein was at the transcriptional level, reporter gene constructs were also examined. Activation of the endogenous AR was measured in LNCaP human prostate cancer cells by measuring androgen-responsive reporters that contain androgen response elements (AREs) such as the PSA-luciferase reporter gene construct or the ARR3-luciferase reporter. LNCaP cells maintained as monolayers were transfected with PSA-luciferase and were used to screen the crude extracts prepared from marine sponges as well as some selected commercial compounds. […] R1881 (1 nM) was used to mediate ligand-dependent activation of the AR and concentrations of FSK (50 μM) were used to mediate ligand-independent activation of the AR.

AR [3] = molecular target: T2, AR; test: ARR3-luciferase reporter in LNCaP cells; assay type: cell-based; set-up: LNCaP cells express endogenous AR and secrete prostate-specific antigen (PSA); endogenous in cells; host or cells: LNCaP; details: read-out: inhibition of R1881 activation of ARR31uc
From the text: LNCaP cells were employed initially for all experiments because they are well-differentiated human prostate cancer cells in which ligand-independent activation of the AR by FSK has been characterized (Nazareth et al 1996 J. Biol. Chem. 271, 19900-19907; and Sadar 1999 J. Biol. Chem. 274, 7777-7783). LNCaP cells express endogenous AR and secrete prostate-specific antigen (PSA) (Horoszewicz et al 1983 Cancer Res. 43, 1809-1818). LNCaP cells can be grown either as monolayers in cell culture or as tumors in the well-characterized xenograft model that progresses to androgen independence in castrated hosts (Sato et al 1996 J. Steroid Biochem. Mol. Biol. 58, 139-146; Gleave et al 1991 Cancer Res. 51, 3753-3761; Sato et al 1997 Cancer Res. 57, 1584-1589; and Sadar et al 2002 Mol. Cancer. Ther. 1(8), 629-637). […] Reporter specificity may be determined using several alternative reporter gene constructs. […]
To ensure that the inhibitory effects of PNG 01-185 extract on endogenous PSA protein was at the transcriptional level, reporter gene constructs were also examined. Activation of the endogenous AR was measured in LNCaP human prostate cancer cells by measuring androgen-responsive reporters that contain androgen response elements (AREs) such as the PSA-luciferase reporter gene construct or the ARR3-luciferase reporter. […]

LNCaP xenografts = test: LNCaP subcutaneous xenografts in castrated mice; assay type: in vivo, NOD-SCID male mice; details: castrated mice
Experimental: Six to eight-week old male athymic SCID mice were inoculated subcutaneously in the flank region via a 27-gauge needle with a 150 μl suspension of LNCaP or PC3 human prostate cancer cells (1×10^6 cells). The inoculations took place while the animal was under isofluorane anaesthesia. The tumor take rate is approximately 75%. Mice bearing tumors of 100 mm^3 were randomly assigned to treatment groups. Castration was performed as described below. Tumor volume (formula: L×W×H×0.5236) was measured in mice bearing LNCaP subcutaneous tumors that became palpable or visible and at least 40 mm^3. The animals were monitored daily and tumors were measured every 5 days.

[4] = LNCaP, at 12.5 μM, read-out: inhibition of R1881 activation of p6.1luc

Compound: CC(C)(c1ccc(OCC(O)CCl)cc1)c1ccc(OCC(O)CCl)cc1 (racemic) [BADGE.2HCl, Racemic BADGE×2HCl]
- LNCaP tumor volume at start of treatment, intratumoral (LNCaP xenografts; I.T. delivery): 109.6±17.4 mm^3
- size of LNCaP xenograft tumors, intratumoral injection (LNCaP xenografts; I.T. every 5 days, 20 mg/kg body weight): reduced the size of the tumors
- LNCaP tumor volume at the duration (end) of the experiment, intratumoral (LNCaP xenografts; i.t. every 5 days, five doses): 79.0±63.6 mm^3

Compound: CC(C)(c1ccc(OCC(O)CCl)cc1)c1ccc(OCC(O)CCl)cc1 (centres unmarked) [drawing 123]
- inhibition at 12.5 µM ([1]; LNCaP, read-out: inhibition of Fsk activation of Ga14ARN, at 12.5 μM): 79%
- inhibition at 12.5 µM (AR [2]; [4]): 69%
- inhibition of R1881 activation of p6.1luc (AR [2]; at 12.5 μM): 63%

Compound: CC(C)(c1ccc(OCC(O)CCl)cc1)c1ccc(OCC(O)CCl)cc1 (centres unmarked) [drawing 124]
- inhibition of Fsk activation of Ga14ARN ([1]; at 12.5 μM): 88%
- inhibition of R1881 activation of p6.1luc (AR [2]; at 12.5 μM): 55%
- inhibition of R1881 activation of p6.1luc (AR [2]; concentration not given): 34.8%

Now from value to molecule:

- inhibition at 20 µM ([1]; LNCaP): 7%
- inhibition at 12.5 µM (AR [2]; [4]): 20%
- inhibition at 20 µM (AR [2]; LNCaP, at 20 μM, read-out: inhibition of R1881 activation of p6.1luc): 33%
Compound: CC(C)(c1ccc(OCC(O)CO)cc1)c1ccc(OCC(O)CI)cc1 (centres unmarked)

- inhibition at 50 µM (AR [3]): 10%
Compound: CC(C)(c1ccc(OCC(O)CO)cc1)c1ccc(OCC(O)CO)cc1 (centres unmarked)

- inhibition at 20 µM ([1]; LNCaP): 33%
- inhibition at 12.5 µM (AR [2]; [4]): 35%
- inhibition of R1881 activation of p6.1luc (AR [2]; at 12.5 μM): 33%
Compound: CC(C)(c1ccc(OCC(O)CI)cc1)c1ccc(OCC(O)CI)cc1 (centres unmarked) [drawing 125]

- inhibition of R1881 activation of p6.1luc (AR [2]; at 12.5 μM): 42% and 29%
Compound: CC(C)(c1ccc(OCC(O)CI)cc1)c1ccc(OCC(O)CI)cc1 (centres unmarked) [drawing 126]
